# Test results: patent publication US6380229B1, “2-(N-cyanoimino)thiazolidin-4-one derivatives” (Fujimoto Co., Ltd., priority 2001, dated 2002)
# Legend:
# [1] = tested on: high cholesterol-fed hamsters; assay: Lipid lowering effects in high cholesterol-fed hamsters; assay type: in vivo, Male Syrian hamsters; conditions: serum
# Description: Lipid Lowering Effects in High Cholesterol-fed Hamsters
# The compounds were tested for lipid lowering effects in high cholesterol-fed hamsters in accordance with the method described in Jpn Pharmacol Ther, 23 (suppl 4), s1047-1053 (1995). Male Syrian hamsters were fed the high cholesterol diet supplemented with 1% cholesterol and 10% coconut oil for 3 weeks. Before drug administration, blood was collected from the orbital venous plexus under ether anesthesia, and a serum total cholesterol level was measured. […] The designated doses of the compound of Example 1 or Bezafibrate were administrated to test groups and the vehicle solution was given to the control group orally once a day for 7 days under the high cholesterol diet feeding. The intact group of animals were fed normal diet. After 4 hours of the final administration, blood was collected by cardiac puncture, and the total cholesterol and triglyceride levels in the serum were determined by the enzymatic method.
# The reduction rate (%) was calculated according to the following equation: [formula]
# [2] = tested on: fructose-induced hyperlipidemic rats; assay: Hypotriglyceridemic activity in fructose-induced hyperlipidemic rats; assay type: in vivo, Sprague Dawley rats; conditions: serum, 30 mg/kg p.o. once a day for 7 days, blood 2 hours after final administration; for inhibition in vivo at 30 mg/kg: Rattus norvegicus, po, read-out: Triglyceride (% Reduction)
# Description: Hypotriglyceridemic Activity in Fructose-induced Hyperlipidemic Rats
# The compounds were tested for a hypotriglyceridemic activity in fructose-induced hyperlipidemic rats in accordance with the method described in Nippon Yakurigaku Zasshi, 92 (3), 175-180 (1988). […] 75% fructose solution as drinking water was given to the animals for 7 days, while normal water was given to the intact groups ad libitum. During the experimental period the test compounds suspended in 3% gum arabic were given to the test group orally once a day in a daily dose of 30 mg/kg. The vehicle solution was given to the control group and the intact group. After 2 hours from the final administration, blood was collected from the abdominal aorta under ether anesthesia, and levels of total cholesterol and triglyceride in the serum were measured. The reduction rate (%) was calculated according to the following equation: [formula]
# Above experimental model is well known as a model of hypertriglicemia.
# mice = assay: Acute toxicity, single oral dose; assay type: in vivo; conditions: oral 2000 mg/kg, observed daily for 2 weeks
# Source text: The animals were observed daily for 2 weeks after the administration.
# [3] = tested on: Salmonella typhimurium TA100 and TA98; assay: Mutagenicity test (reverse mutation test); assay type: cell-based; conditions: absence or presence of S9 mix
# Source text: The mutagenicity of the compound of Example 1 was examined by a reverse mutation test using Salmonella typhimurium TA100 and TA98 in the absence or presence of S9 mix.
# [4] = 30 mg/kg orally once a day for 7 days, minus = increase
# [5] = 60 mg/kg orally once a day for 7 days, minus = increase
# [6] = 120 mg/kg orally once a day for 7 days, minus = increase
# [7] = 15 mg/kg orally once a day for 7 days, minus = increase
# [8] = Table 4 (Example 65), 15 mg/kg p.o.
structure (smiles),measurement,setting,value
"CC(C)(Oc1ccc(CCNC(=O)c2ccc(Cl)cc2)cc1)C(=O)O [Bezafibrate, reference compound]",Total cholesterol (% Reduction),[1]; [4],−5%
same,Triglyceride (% Reduction),[1]; [4],−21%
same,Total cholesterol (% Reduction),[1]; [5],−0%
same,Triglyceride (% Reduction),[1]; [5],−18%
same,Total cholesterol (% Reduction),[1]; [6],20%
same,Triglyceride (% Reduction),[1]; [6],16%
"N#CN=C1NC(=O)/C(=C\c2ccc(C=Cc3ccccc3)cc2)S1 [Example 1, 2-(N-Cyanoimino)-5-[(E)-4-stylylbenzylidene]thiazolidin-4-one]",Triglyceride (% Reduction),[2],47%
same,single dose toxicity: deaths,mice,no deaths were observed
same,Total cholesterol (% Reduction),[1]; [7],26%
same,Triglyceride (% Reduction),[1]; [7],60%
same,Total cholesterol (% Reduction),[1]; [4],25%
same,Triglyceride (% Reduction),[1]; [4],62%
same,Total cholesterol (% Reduction),[1]; [5],29%
same,Triglyceride (% Reduction),[1]; [5],69%
same,Total cholesterol (% Reduction),[1]; [6],41%
same,Triglyceride (% Reduction),[1]; [6],80%
same,mutagenicity (number of revertant colonies),[3],not mutagenic
"CC(=Cc1ccccc1)c1ccc(/C=C2/SC(=NC#N)NC2=O)cc1 [Example 2, 2-(N-Cyanoimino)-5-[(E)-4-(a-methylstylyl)benzylidene]thiazolidin-4-one]",Triglyceride (% Reduction),[2],67%
same,Total cholesterol (% Reduction),[1]; [8],27%
same,Triglyceride (% Reduction),[1]; [8],57%
"N#CN=C1NC(=O)C(=Cc2ccc(COCc3ccccc3)cc2)S1 [Example 3, 2-(N-Cyanoimino)-5-[4-(benzyloxymethyl)benzylidene]thiazolidin-4-one]",inhibition in vivo at 30 mg/kg,[2],64%
same,Total cholesterol (% Reduction),[1]; [8],16%
same,Triglyceride (% Reduction),[1]; [8],17%
"CC(=Cc1ccc(/C=C2/SC(=NC#N)NC2=O)cc1)c1ccccc1 [Example 4, 2-(N-Cyanoimino)-5-[(E)-4-(b-methylstylyl)benzylidene]thiazolidin-4-one]",Triglyceride (% Reduction),[2],42%
"N#CN=C1NC(=O)C(=Cc2ccc(Oc3ccc(Cl)cc3)cc2)S1 [Example 6, 2-(N-Cyanoimino)-5-[4-(4-chlorophenoxy)benzylidene]thiazolidin-4-one]",inhibition in vivo at 30 mg/kg,[2],84%
"N#CN=C1NC(=O)C(=Cc2ccc(Sc3ccccc3)cc2)S1 [Example 7, 2-(N-Cyanoimino)-5-(4-phenylthiobenzylidene)thiazolidin-4-one]",inhibition in vivo at 30 mg/kg,[2],60%
same,Total cholesterol (% Reduction),[1]; [8],18%
same,Triglyceride (% Reduction),[1]; [8],12%
"N#CN=C1NC(=O)/C(=C\c2ccc(C=Cc3ccccc3F)cc2)S1 [Example 8, 2-(N-Cyanoimino)-5-[(E)-4-(2-fluorostylyl)benzylidene]thiazolidin-4-one]",Triglyceride (% Reduction),[2],47%
"Cc1ccc(C)c(Oc2ccc(C=C3SC(=NC#N)NC3=O)cc2)c1 [Example 9, 2-(N-Cyanoimino)-5-[4-(2,5-dimethylphenoxy)benzylidene]thiazolidin-4-one]",inhibition in vivo at 30 mg/kg,[2],49%
same,Total cholesterol (% Reduction),[1]; [8],15%
same,Triglyceride (% Reduction),[1]; [8],15%
"N#CN=C1NC(=O)C(=Cc2ccc(OCCc3ccccc3)cc2)S1 [Example 10, 2-(N-Cyanoimino)-5-(4-phenethyloxybenzylidene)thiazolidin-4-one]",inhibition in vivo at 30 mg/kg,[2],39%
same,single dose toxicity: deaths,mice,no deaths were observed
"CC(COc1ccc(C=C2SC(=NC#N)NC2=O)cc1)c1ccccc1 (stereo not shown) [Example 11, 2-(N-Cyanoimino)-5-[4-(2-phenylpropoxy)benzylidene]thiazolidin-4-one]",inhibition in vivo at 30 mg/kg,[2],62%
"N#CN=C1NC(=O)C(=Cc2cccc(OCCc3ccccc3)c2)S1 [Example 12, 2-(N-Cyanoimino)-5-(3-phenethyloxybenzylidene)thiazolidin-4-one]",inhibition in vivo at 30 mg/kg,[2],59%
"N#CN=C1NC(=O)C(=Cc2ccc(OCc3ccccc3)cc2)S1 [Example 13, 2-(N-Cyanoimino)-5-(4-benzyloxybenzylidene)thiazolidin-4-one]",inhibition in vivo at 30 mg/kg,[2],55%
"N#CN=C1NC(=O)C(=Cc2ccc(-c3cc4cc(Cl)ccc4o3)cc2)S1 [Example 14, 2-(N-Cyanoimino)-5-[4-(5-chlorobenzofuran-2-yl)benzylidene]thiazolidin-4-one]",inhibition in vivo at 30 mg/kg,[2],36%
same,Total cholesterol (% Reduction),[1]; [8],11%
same,Triglyceride (% Reduction),[1]; [8],24%
"COc1ccc(C=Cc2ccc(/C=C3/SC(=NC#N)NC3=O)cc2)cc1 [Example 15, 2-(N-Cyanoimino)-5-[(E)-4-(4-methoxystylyl)benzylidene]thiazolidin-4-one]",Triglyceride (% Reduction),[2],47%
same,Total cholesterol (% Reduction),[1]; [8],32%
same,Triglyceride (% Reduction),[1]; [8],61%
"N#CN=C1NC(=O)C(=Cc2cccc(Oc3ccccc3)c2)S1 [Example 16, 2-(N-Cyanoimino)-5-(3-phenoxybenzylidene)thiazolidin-4-one]",inhibition in vivo at 30 mg/kg,[2],54%
"N#CN=C1NC(=O)C(=Cc2ccc(OCc3ccc4c(c3)OCO4)cc2)S1 [Example 17, 2-(N-Cyanoimino)-5-[4-(1,3-benzodioxol-5-ylmethoxy)benzylidene]thiazolidin-4-one]",inhibition in vivo at 30 mg/kg,[2],37%
"N#CN=C1NC(=O)C(=Cc2ccc(OCc3ccc(Cl)cc3)cc2)S1 [Example 19, 2-(N-Cyanoimino)-5-[4-(4-chlorobenzyloxy)benzylidene]thiazolidin-4-one]",inhibition in vivo at 30 mg/kg,[2],38%
"N#CN=C1NC(=O)C(=Cc2ccccc2OCCc2ccccc2)S1 [Example 21, 2-(N-Cyanoimino)-5-(2-phenethyloxybenzylidene)thiazolidin-4-one]",inhibition in vivo at 30 mg/kg,[2],48%
"N#CN=C1NC(=O)C(=Cc2ccc(Oc3ccccc3)cc2)S1 [Example 22, 2-(N-Cyanoimino)-5-(4-phenoxybenzylidene)thiazolidin-4-one]",inhibition in vivo at 30 mg/kg,[2],65%
CCC(Oc1ccc(C)cc1)c1ccccc1 (stereo not shown) [Example 32],inhibition in vivo at 30 mg/kg,[2],47%
